{"source": "patent EP0845217A1", "about": "“Inhibiting undesirable taste in oral compositions” (priority 1996, dated 1998)", "key": {"mud puppy taste cells": {"tested_on": "mud puppy taste cells", "assay": "Response of isolated taste cells to bitter-tasting compounds, intracellular calcium fluorescence", "type": "cell-based", "conditions": "for taste cell response to bitter tasting compound: bitter compound alone; for effect on taste cell response to denatonium benzoate: inhibitor mixed with denatonium benzoate; for effect on taste cell response to dextromethorphan: inhibitor mixed with dextromethorphan", "method": "Taste cells are isolated from the mud puppy, a type of salamander (S. C. Kinnamon, et al, Chemical Senses 13: 355 - 366, 1988). Briefly, a fresh mud puppy tongue is incubated with collagenase, the non-gustatory epithelium is peeled off the surface, and individual taste buds are gently drawn into a micropipette using a dissecting microscope at 50X magnification. The taste buds are plated into small vessels, that are coated with Cell-Tak, containing culture media. The taste cells can remain viable up to 18 days and maintain normal functions (C. Ruiz, et al, Experimental Cell Biology of Taste and Olfaction, Current Techniques and Protocols, A. I. Spielman and J. G. Brand, eds., CRC Press, 1995, pp. 79 - 84). The taste cells are labeled intracellularly with a marker compound that fluoresces in a dose-dependent fashion to calcium ion concentration. Since an increase in the intracellular calcium ion concentration is one of the last steps in converging biochemical signal transduction pathways for bitterness, the fluorescent marker correlates with taste cell response to bitterness (D. Restrepo, et al, Experimental Cell Biology of Taste and Olfaction, Current Techniques and Protocols, A. I. Spielman and J. G. Brand, eds., CRC Press, 1995, pp. 387 - 398). Labeled taste cells are observed microscopically using image analysis software. Using a micropipette, taste cells are exposed to bitter-tasting compounds by adding the compounds in media near the taste cell. Cells that respond to the bitter-tasting compound show an increase in fluorescence intensity. Bitter inhibitors are tested by adding them to the test solution with the bitter-tasting compound. The response of individual taste cells to bitter-tasting compounds and to bitter-tasting compounds plus inhibitor are monitored by measuring the fluorescent intensity using a microscope. Images are stored electronically and image analysis software is used to analyze the data (D. Restrepo, et al, Biophysical Journal 64: 1961 - 1966, 1993)."}, "[1]": {"tested_on": "purified protein tyrosine phosphatase", "assay": "Purified protein tyrosine phosphatase, dephosphorylation of phosphotyrosine-containing peptide substrates", "type": "biochemical", "conditions": "experiments not described"}, "[2]": {"tested_on": "Pig taste tissue tyrosine phosphatase", "assay": "Protein tyrosine phosphatase activity of pig taste tissue homogenate, phosphotyrosine peptide substrates, ELISA", "type": "biochemical", "conditions": "for % Total Phosphatase Activity: pig taste tissue 615 ug/ml protein, 10°C for 20 min", "method": "Taste tissue (circumvallate papillae) is dissected from fresh pig tongue and homogenized in buffer. Protein tyrosine phosphatase activity is measured using peptides containing phosphotyrosine as the substrate. Two substrates are used. […] The removal of phosphate from the phosphotyrosines is determined by measurement of phosphotyrosine concentration, using an ELISA, after reaction of the peptide substrate with pig taste tissue. The activity of purified tyrosine phosphatase is determined in each experiment as a control.\nIn this experiment, pig taste tissue and peptide substrate are combined in a buffer of 20 mM Tris, 0.1% beta-mercaptoethanol, and 1 mg/ml BSA, pH 7.0. A total volume of 100 ul in each well of a 96-well microtiter plate is used. […] The enzyme reaction is done at 10°C for 20 min. The reaction is stopped by the addition of 25 ul 400 uM sodium orthovanadate. […]\nIn another experiment using the same conditions as described above, the tyrosine dephosphorylation of peptide substrate 1 is measured after 1, 2, 3, 4, 5, 6, 7 and 8 minute reactions at room temperature with pig taste tissue (41 ug/ml protein) as the enzyme source."}, "alkaline phosphatase": {"target": "alkaline phosphatase (Bos taurus, UniProt P19111)", "sequence (P19111 20-506)": "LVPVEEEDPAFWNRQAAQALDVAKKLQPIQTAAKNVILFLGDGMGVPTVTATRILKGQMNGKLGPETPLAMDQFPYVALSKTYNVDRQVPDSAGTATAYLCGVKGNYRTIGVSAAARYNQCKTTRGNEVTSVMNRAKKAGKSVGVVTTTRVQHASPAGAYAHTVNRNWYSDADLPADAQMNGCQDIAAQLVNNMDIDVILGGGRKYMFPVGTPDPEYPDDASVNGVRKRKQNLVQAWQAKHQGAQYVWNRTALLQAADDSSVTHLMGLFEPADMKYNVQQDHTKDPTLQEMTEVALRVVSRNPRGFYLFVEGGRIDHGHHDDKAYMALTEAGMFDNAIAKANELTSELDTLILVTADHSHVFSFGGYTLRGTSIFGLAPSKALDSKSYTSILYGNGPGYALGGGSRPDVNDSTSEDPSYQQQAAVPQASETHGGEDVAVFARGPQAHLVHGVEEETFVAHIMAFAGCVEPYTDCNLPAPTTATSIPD", "type": "biochemical, bovine", "conditions": "PNPP substrate", "method": "Enzyme kinetics experiments are done using purified alkaline phosphatase from bovine intestine and the substrate para-nitrophenyl phosphate (PNPP). The formation of colored para-nitrophenol (PNP) from colorless PNPP is followed by measuring the color formation in the presence of inhibitor at several concentrations.\nSpecifically, enzyme reactions are done in a volume of 200 ul containing 12.5 mU/ml alkaline phosphatase, PNPP at concentrations between 0.5-200 mM, and an inhibitor at concentrations between 0-100 mM. […] Phosphoserine is the natural substrate for this enzyme. The final buffer solution is 0.9 M diethanolamine and 0.5 mM […], pH 9.8, mixed 3:1 (v:v) with water. Reactions are done in a 96-well microtiter plate. The enzyme reaction is initiated by the addition of the enzyme. Each reaction mixture is done in triplicate. The enzyme reaction is monitored by measuring the optical density (OD) at 405 nm, with a reference OD of 490 nm. The OD's are read every 30 seconds over a 15 minute period at room temperature. PNP concentration is determined based on a standard curve correlating OD405/490 vs. PNP concentration. […] The data is then transformed and plotted as the Kmapp / Vmax. vs. inhibitor concentration. From these plots the dissociation constant of the enzyme-inhibitor complex, Ki, is determined. The x-intercept on this plot equals (-Ki). […]"}, "[3]": {"target": "protein tyrosine phosphatase (Yersinia enterocolitica, UniProt P15273)", "sequence (P15273 whole entry)": "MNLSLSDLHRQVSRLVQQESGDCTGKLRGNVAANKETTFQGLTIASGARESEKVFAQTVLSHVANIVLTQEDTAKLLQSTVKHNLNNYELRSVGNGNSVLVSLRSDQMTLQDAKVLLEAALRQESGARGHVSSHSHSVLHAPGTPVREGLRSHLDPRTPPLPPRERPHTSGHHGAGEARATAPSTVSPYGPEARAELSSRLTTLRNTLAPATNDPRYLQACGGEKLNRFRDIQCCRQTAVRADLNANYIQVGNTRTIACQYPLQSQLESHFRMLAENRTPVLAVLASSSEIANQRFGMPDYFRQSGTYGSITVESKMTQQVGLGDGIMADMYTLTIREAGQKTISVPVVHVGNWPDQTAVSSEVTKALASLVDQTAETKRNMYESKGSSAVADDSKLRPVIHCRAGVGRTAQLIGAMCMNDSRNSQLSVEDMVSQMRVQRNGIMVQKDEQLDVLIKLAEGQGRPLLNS", "assay": "Protein tyrosine phosphatase enzyme kinetics with PNPP substrate", "type": "biochemical", "conditions": "pH 7.5", "method": "Enzyme kinetics are done using purified protein tyrosine phosphatase from the bacteria, Yersinia enterocolitica, recombinant form, with PNPP as the substrate. The enzyme kinetics experiments are done similarly to the kinetics experiments for alkaline phosphatase and acid phosphatase described above.\nEach final reaction mixture contains 20 mM Tris, 0.1 % beta-mercaptoethanol, and 0.1% bovine serum albumin at pH 7.5. The ionic strength of each reaction mixture is the same and is balanced by the addition of the appropriate amount of NaCl. Activity of this enzyme is extremely sensitive to ionic strength. Each reaction is begun with the addition of tyrosine phosphatase. The formation of PNP is monitored by measuring the OD405/490 at 30 second intervals over a 30 minute period. The enzyme velocity is linear over this time period under these conditions. The Ki values are calculated as described above for alkaline phosphatase (Table 2)."}}, "note": "Where a name gives a salt, the structure may show the parent alone."}
{"molecule": "CN(C)CCC(c1ccc(Cl)cc1)c1ccccn1", "note": "(stereo not drawn) [chlorpheniramine maleate]", "values": [{"measurement": "taste cell response to bitter tasting compound", "setting": "mud puppy taste cells", "value": "increase in intracellular calcium concentration"}]}
{"molecule": "C=C1[C@@H](O)[C@@H]2O[C@]3(CC[C@H](/C=C/[C@@H](C)[C@@H]4CC(C)=C[C@@]5(O[C@H](C[C@@](C)(O)C(=O)O)CC[C@H]5O)O4)O3)CC[C@H]2O[C@@H]1[C@@H](O)C[C@H](C)[C@H]1O[C@@]2(CCCCO2)CC[C@H]1C", "note": "[okadaic acid]", "values": [{"measurement": "effect on taste cell response to denatonium benzoate", "setting": "mud puppy taste cells", "value": "has no effect on response"}, {"measurement": "effect on taste cell response to dextromethorphan", "setting": "mud puppy taste cells", "value": "has no effect on response"}]}
{"molecule": "CC[N+](CC)(CC(=O)Nc1c(C)cccc1C)Cc1ccccc1", "note": "[denatonium benzoate]", "values": [{"measurement": "taste cell response to bitter tasting compound", "setting": "mud puppy taste cells", "value": "increase in intracellular calcium concentration"}]}
{"molecule": "N[C@@H](Cc1ccc(OP(=O)(O)O)cc1)C(=O)O", "note": "[phosphotyrosine]", "values": [{"measurement": "effect on tyrosine phosphatase activity against peptide substrates", "setting": "[1]", "value": "inhibit the dephosphorylation"}, {"measurement": "time until complete dephosphorylation of substrate 1", "setting": "[2]; pig taste tissue 41 ug/ml protein, room temperature, final concentration 10 nmoles/ml", "value": 7, "unit": "min"}, {"measurement": "effect on taste cell response to chlorpheniramine maleate", "setting": "mud puppy taste cells; inhibitor mixed with chlorpheniramine maleate", "value": "decreases the response"}, {"measurement": "effect on taste cell response to denatonium benzoate", "setting": "mud puppy taste cells", "value": "decreases the response"}, {"measurement": "effect on taste cell response to dextromethorphan", "setting": "mud puppy taste cells", "value": "decreases the response"}]}
{"molecule": "C=CCc1ccc(OP(=O)(O)O)c(OC)c1", "note": "[EMP, eugenylmonophosphate]", "values": [{"measurement": "type of inhibition of alkaline phosphatase", "setting": "alkaline phosphatase", "value": "competitively inhibited"}, {"measurement": "Ki", "setting": "[3]; 22°C", "value": 3.7, "unit": "mM"}, {"measurement": "Ki", "setting": "[3]; 37°C", "value": 3.3, "unit": "mM"}, {"measurement": "effect on tyrosine phosphatase activity against peptide substrates", "setting": "[1]", "value": "inhibits the activity"}]}
{"molecule": "F", "note": "[calcium fluoride]", "values": [{"measurement": "effect on tyrosine phosphatase activity against peptide substrates", "setting": "[1]", "value": "does not affect tyrosine phosphatase activity"}, {"measurement": "% Total Phosphatase Activity", "setting": "[2]; Peptide Substrate 1", "value": 109, "unit": "%"}, {"measurement": "% Total Phosphatase Activity", "setting": "[2]; Peptide Substrate 2", "value": 96, "unit": "%"}, {"measurement": "time until all phosphates are removed from peptide substrate 1", "setting": "[2]; pig taste tissue 41 ug/ml protein, room temperature, calcium fluoride added, concentration not given", "value": 2, "unit": "min"}]}
{"molecule": "COc1ccc2c(c1)[C@]13CCCC[C@@H]1[C@H](C2)N(C)CC3", "note": "[dextromethorphan]", "values": [{"measurement": "taste cell response to bitter tasting compound", "setting": "mud puppy taste cells", "value": "increase in intracellular calcium concentration"}]}
{"molecule": "CC1CCC(C(C)C)C(OP(=O)(O)O)C1", "note": "(stereo not drawn) [MMP, menthylmonophosphate]", "values": [{"measurement": "type of inhibition of alkaline phosphatase", "setting": "alkaline phosphatase", "value": "competitively inhibited"}]}
{"molecule": "O=C(O)CP(=O)(O)O", "note": "[phosphonic acetic acid]", "values": [{"measurement": "effect on taste cell response to denatonium benzoate", "setting": "mud puppy taste cells", "value": "small reduction in response"}, {"measurement": "effect on taste cell response to dextromethorphan", "setting": "mud puppy taste cells", "value": "small reduction in response"}]}
{"molecule": "N[C@@H](COP(=O)(O)O)C(=O)O", "note": "[Phosphoserine, reference compound]", "values": [{"measurement": "type of inhibition of alkaline phosphatase", "setting": "alkaline phosphatase", "value": "competitively inhibited"}]}
{"molecule": "[Na+].[Na+].[Na+].[O]=[V]([O-])([O-])[O-]", "note": "[sodium orthovanadate]", "values": [{"measurement": "effect on tyrosine phosphatase activity against peptide substrates", "setting": "[1]", "value": "inhibits the tyrosine phosphatase activity"}, {"measurement": "% Total Phosphatase Activity", "setting": "[2]; Peptide Substrate 1", "value": 32, "unit": "%"}, {"measurement": "% Total Phosphatase Activity", "setting": "[2]; Peptide Substrate 2", "value": 46, "unit": "%"}, {"measurement": "time until complete dephosphorylation of substrate 1", "setting": "[2]; pig taste tissue 41 ug/ml protein, room temperature, final concentration 100 nmoles/ml", "value": 7, "unit": "min"}, {"measurement": "effect on taste cell response to denatonium benzoate", "setting": "mud puppy taste cells", "value": "inhibits the response"}]}
{"molecule": "NCCC(O)(P(=O)(O)O)P(=O)(O)O", "note": "[Pamidronic acid, pamidronic acid]", "values": [{"measurement": "effect on taste cell response to denatonium benzoate", "setting": "mud puppy taste cells", "value": "small reduction in response"}, {"measurement": "effect on taste cell response to dextromethorphan", "setting": "mud puppy taste cells", "value": "small reduction in response"}]}
{"molecule": "O=P(O)(O)CP(=O)(O)O", "note": "[Methylene diphosphonic acid]", "values": [{"measurement": "share of taste cells tested with small decrease in response to denatonium benzoate", "setting": "mud puppy taste cells; denatonium benzoate", "value": 50, "unit": "%"}, {"measurement": "effect on taste cell response to denatonium benzoate", "setting": "mud puppy taste cells", "value": "small decrease in response"}]}
{"molecule": "Cc1ccc(C(C)C)c(OP(=O)(O)O)c1", "note": "[ThMP, thymylmonophosphate]", "values": [{"measurement": "type of inhibition of alkaline phosphatase", "setting": "alkaline phosphatase", "value": "competitively inhibited"}, {"measurement": "Ki", "setting": "[3]; 22°C", "value": 3.6, "unit": "mM"}]}
